Measured values taken from paper PMC10600239, “Selective MCL-1 inhibitor ABBV-467 is efficacious in tumor models but is associated with cardiac troponin increases in patients” (Communications Medicine, 2023).
Values joined by “and” are separate entries in the source; they are usually repeats but may differ in a detail not shown here. Identical values can stand only once. Like-named read-outs stand apart in the source and are kept apart here. Blank lines part the entries; values can stand above or below the compound they belong to.

How the values were obtained:
BCL-2 = BCL-2 (Homo sapiens, UniProt P10415); experiment: Time-resolved FRET binding assay
Experimental: (§1) Binding affinities for MCL-1, BCL-2, BCL-XL, BCL-W, and BCL2-A1 were determined using a time-resolved fluorescence resonance energy transfer (FRET) assay. Test compounds were serially diluted in DMSO starting at […] (20× starting concentration; 100% DMSO followed by a 1:10 dilution of the compound DMSO plate into assay buffer); 10 µL of the compound in 10% DMSO was then transferred into a 384-well plate (low-volume Corning #3673 assay plate). Glutathione S-transferase (GST)-tagged recombinant BCL-2, BCL-XL, MCL-1, BCL-W, or BCL2-A1 protein (1 nM each) were mixed with 100 nM Oregon Green™-labeled f-BAK peptide probe and 1 nM Tb-labeled anti-GST antibody were mixed. Then 10 µL of a 2× protein/probe/antibody mix was added to each well of increasing concentrations of test compound in assay buffer (20 mM potassium phosphate, pH 7.6, 50 mM NaCl, 1 mM ethylenediaminetetraacetic acid disodium salt dihydrate, 0.05% pluronic acid F-68, 1 mM DL-dithiothreitol) at room temperature (final concentrations listed in Supplementary Table S2). The samples were then mixed on a shaker for 1 min and incubated for an additional 1 h at room temperature. For each assay plate, a probe/antibody and protein/antibody/probe mixture were included as a negative and a positive control, respectively. Fluorescence was measured on the EnVision™ (Perkin Elmer) using a 340/35-nm excitation filter and 520/525- (F-Bak) and 495/510-nm (Tb-labeled anti-glutathione S-transferase [GST] antibody) emission filters. Dissociation constants were determined using Wang’s equation[35]. The time-resolved FRET assay can be performed in the presence of varying concentrations of human serum to determine apparent half-maximal inhibitory concentration after serum protein binding.

BCL-W = biological target: T1, BCL-W (Homo sapiens, UniProt Q92843); experiment: Time-resolved FRET binding assay
T1 sequence (Q92843 1-193): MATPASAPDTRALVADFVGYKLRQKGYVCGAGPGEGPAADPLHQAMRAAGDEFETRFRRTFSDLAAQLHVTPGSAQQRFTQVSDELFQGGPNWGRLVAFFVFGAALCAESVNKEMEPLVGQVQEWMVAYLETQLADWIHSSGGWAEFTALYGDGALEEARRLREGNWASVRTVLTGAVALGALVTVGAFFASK
Experimental: as §1

BCL-XL = BCL-XL (Homo sapiens, UniProt Q07817); experiment: Time-resolved FRET binding assay
Experimental: as §1

BCL2-A1 = biological target: T2, BCL2-A1 (Homo sapiens, UniProt Q16548); experiment: Time-resolved FRET binding assay
T2 sequence (Q16548 1-175): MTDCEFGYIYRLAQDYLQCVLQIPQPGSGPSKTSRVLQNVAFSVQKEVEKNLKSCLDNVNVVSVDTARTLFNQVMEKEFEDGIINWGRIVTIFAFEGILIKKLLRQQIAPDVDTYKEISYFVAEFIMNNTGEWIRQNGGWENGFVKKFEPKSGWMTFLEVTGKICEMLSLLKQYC
Experimental: as §1

DLD-1 cells = experiment: In vitro cell viability assay (CellTiter-Glo); format: cell-based, human
Experimental: (§2) All cell lines were grown and treated in RPMI 1640 or Dulbecco’s modified Eagle medium (Sigma, St. Louis, MO) supplemented with 10% fetal bovine serum (Gibco) or 10% human serum (Sigma) and maintained in a humidified incubator at 5% CO2 and 37 °C. DLD-1, MV4-11, NCI-H929 (all ATCC, Manassas, VA, USA) and AMO-1 (DSMZ, Braunschweig, Germany) cells were plated 4000 cells per well in 384-well tissue culture plates and treated with compounds of interest for 24 h at 37 °C, 5% CO2 humidified incubator. Each concentration was tested in duplicate at least 3 separate times. Adherent cells were allowed to adhere overnight prior to treatment. Alternatively, AMO-1 or NCI-H929 cells were treated with ABBV-467 for the indicated contact times (1–24 h) at 37 °C in a 5% CO2 humidified incubator and washed 3 times with compound-free media prior to incubation for the remainder of a 24-h treatment period. Cell viability was subsequently determined using CellTiter-Glo (Promega, Madison, WI, USA) according to the manufacturer’s instructions.
(§3) For in vitro viability assays, mean EC50 and EC90 values were determined from the resulting dose-response curves from at least 3 independent experiments, and depict the mean ± standard error of the mean.

MV4-11 cells = experiment: In vitro cell viability assay (CellTiter-Glo); format: cell-based, human; details: Homo sapiens
Experimental: as §2, §3

AMO-1 cells = experiment: In vitro cell viability assay (CellTiter-Glo); format: cell-based, human; details: Homo sapiens
Experimental: as §2, §3
(§4) Fig. 2 Apoptosis induced by ABBV-467 is mechanism based and induces cell death in MCL-1-dependent cell lines after short target engagement periods. H929 cells were treated with ABBV-467 in the presence or absence of the pan-caspase inhibitor z-VAD-fmk (50 µM) and the impact on caspase-3/7 activation (a), mitochondrial membrane potential (ΔΨm; b), and apoptosis (c) determined. Alternatively, BAK-deficient SKBR3 cells were treated with ABBV-467 for 24 h and the impact on cell viability compared with the parental cell line, determined by CellTiter-Glo. Inset depicts a western blot of BAK and BAX expression in SKBR3 cell variants using GAPDH as a loading control. Each of the 3 proteins were probed on separate blots (d). Data in (a–d) are presented as the mean ± standard error of the mean. H929 and AMO-1 cells were treated with ABBV-467 at the indicated concentrations and the impact on caspase-3/7 activation and viability (DRAQ7-positive) cells determined over time by Incucyte®. Data are presented as the mean ± standard deviation (e). H929 or AMO-1 cells were cultured in media containing 10% human serum and treated with ABBV-467 for the indicated contact times. Cells were subsequently washed 3 times with drug-free media and incubated in drug-free media for the remainder of the 24-h treatment period at 37 °C before cell viability was determined by CellTiter-Glo. Mean EC50 and EC90 values were determined from the resulting dose-response curves from at least 3 independent experiments, each assessed in quadruplicate, and depict the mean ± standard error of the mean. Presented ABBV-467 dose-response curves in H929 and AMO-1 cells were compiled from at least 3 independent experiments (f).

H929 cells = experiment: In vitro cell viability assay (CellTiter-Glo); format: cell-based, human; details: Homo sapiens
Experimental: as §2, §3, §4

human MCL-1 = human MCL-1 (Homo sapiens, UniProt Q07820); experiment: Time-resolved FRET binding assay
Experimental: as §1, with “Test” for “Binding affinities for MCL-1, BCL-2, BCL-XL, BCL-W, and BCL2-A1 were determined using a time-resolved fluorescence resonance energy transfer (FRET) assay. Test”

[1] = TR-FRET, arithmetic mean, read-out: Arithmetic Mean Ki, BCL-2
[2] = TR-FRET, individual determinations, read-out: Individual Ki, BCL-2
[3] = read-out: TR-FRET, Ki, nM BCL-2
[4] = TR-FRET, arithmetic mean, read-out: Arithmetic Mean Ki, BCL-XL
[5] = TR-FRET, individual determinations, read-out: Individual Ki, BCL-XL
[6] = read-out: TR-FRET, Ki, nM BCL-XL

Sequence of human MCL-1 (Q07820 whole entry): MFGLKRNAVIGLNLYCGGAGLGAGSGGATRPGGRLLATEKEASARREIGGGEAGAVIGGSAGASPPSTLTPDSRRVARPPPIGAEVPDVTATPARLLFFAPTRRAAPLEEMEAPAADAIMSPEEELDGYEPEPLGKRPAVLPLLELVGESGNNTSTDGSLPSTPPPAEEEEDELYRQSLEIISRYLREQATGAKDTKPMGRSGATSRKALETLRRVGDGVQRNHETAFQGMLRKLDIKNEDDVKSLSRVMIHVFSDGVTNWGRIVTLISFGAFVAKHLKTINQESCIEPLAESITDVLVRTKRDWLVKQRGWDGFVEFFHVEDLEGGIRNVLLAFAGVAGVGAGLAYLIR
Sequence of BCL-2 (P10415 whole entry): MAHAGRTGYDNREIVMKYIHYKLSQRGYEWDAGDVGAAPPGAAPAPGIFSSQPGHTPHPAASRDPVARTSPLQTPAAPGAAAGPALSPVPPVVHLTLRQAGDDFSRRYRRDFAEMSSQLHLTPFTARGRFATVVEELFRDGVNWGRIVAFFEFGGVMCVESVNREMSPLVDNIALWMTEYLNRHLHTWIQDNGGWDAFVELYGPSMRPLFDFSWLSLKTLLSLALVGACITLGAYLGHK
Sequence of BCL-XL (Q07817 whole entry): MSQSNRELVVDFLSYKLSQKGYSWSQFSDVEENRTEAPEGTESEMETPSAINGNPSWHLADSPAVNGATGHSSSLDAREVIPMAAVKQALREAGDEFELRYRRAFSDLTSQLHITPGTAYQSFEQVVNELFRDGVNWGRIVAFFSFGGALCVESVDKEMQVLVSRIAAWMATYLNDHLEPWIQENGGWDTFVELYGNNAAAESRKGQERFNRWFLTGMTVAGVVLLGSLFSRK

Ki (BCL-2; [1]): 599 nM | Ki (BCL-2; [2]): 319 nM and 376 nM and 955 nM and 745 nM | Ki (BCL-2; [3]): 599 nM | Ki (BCL-W; TR-FRET, arithmetic mean, read-out: Arithmetic Mean Ki, BCL-W): > 468 nM | Ki (BCL-W; TR-FRET, individual determinations, read-out: Individual Ki, BCL-W): > 468 nM | Ki (BCL-W; read-out: TR-FRET, Ki, nM BCL-W): > 468 nM | Ki (BCL-XL; [4]): > 660 nM | Ki (BCL-XL; [5]): > 660 nM | Ki (BCL-XL; [6]): > 660 nM | Ki (BCL2-A1; TR-FRET, arithmetic mean, read-out: Arithmetic Mean Ki, BCL2-A1): > 468 nM | Ki (BCL2-A1; TR-FRET, individual determinations, read-out: Individual Ki, BCL2-A1): > 468 nM | Ki (BCL2-A1; read-out: TR-FRET, Ki, nM BCL2-A1): > 468 nM | EC50 (DLD-1 cells; DLD-1, individual determinations, listed as MIK665, read-out: Individual EC50): > 1000 nM and > 10000 nM and 4770 nM and 3350 nM and 6620 nM and 4370 nM and 4270 nM and 5810 nM and 4060 nM | EC50 (DLD-1 cells; Homo sapiens, DLD-1, 24 h, read-out: DLD-1 EC50 (nM, 10% FBS), 10% FBS, 24 h continuous treatment): 4750 nM | EC50 (MV4-11 cells; MV4-11, 24 h, read-out: MV4-11 EC50 (nM, 10% FBS), 10% FBS, 24 h continuous treatment): 10.9 nM | EC50 (MV4-11 cells; MV4-11, MV4-11, arithmetic mean, read-out: Arithmetic Mean EC50 µM): 10.9 nM | EC50 (H929 cells; NCI-H929, 24 h, read-out: H929 EC50 (nM, 10% FBS), 10% FBS, 24 h continuous treatment): 4.75 nM | EC50 (H929 cells; NCI-H929, NCI-H929, arithmetic mean, read-out: Arithmetic Mean EC50 µM): 4.75 nM
Structure (SMILES): COc1ccccc1-c1nccc(COc2ccccc2CC(Oc2ncnc3sc(-c4ccc(F)cc4)c(-c4ccc(OCCN5CCN(C)CC5)c(Cl)c4C)c23)C(=O)O)n1 (stereo not shown) [Compound 1, reference compound]
EC50 (AMO-1 cells; AMO1, 24 h, read-out: AMO-1 EC50 (nM, 10% FBS), 10% FBS, 24 h continuous treatment): 2.06 nM | EC50 (AMO-1 cells; AMO1, AMO-1, arithmetic mean, read-out: Arithmetic Mean EC50 µM): 2.06 nM

Ki (BCL-2; [1]): > 1200 nM | Ki (BCL-2; [2]): > 1200 nM | Ki (BCL-2; [3]): > 1200 nM | Ki (BCL-XL; [4]): > 660 nM | Ki (BCL-XL; [5]): > 660 nM | Ki (BCL-XL; [6]): > 660 nM | Ki (human MCL-1; TR-FRET, individual determinations, read-out: Individual Ki, MCL1): 2.48 nM and 5.01 nM and 9.14 nM | Ki (human MCL-1; read-out: TR-FRET, Ki, nM MCL-1): 5.54 nM
Structure (SMILES): COc1ccccc1-c1nccc(COc2ccc3cc2CC(C(=O)O)Oc2ncnc4sc(-c5ccc(F)cc5)c(c24)-c2ccc(c(Cl)c2C)N(CCN2CCN(C)CC2)C3)n1 (stereo not shown) [Compound 2]
